{
  "source": "PubChem BioAssay AID328",
  "about": "(DTP/NCI, 2004)",
  "tested_on": "BDF1 mice, P388 leukemia ip, median survival T/C",
  "experiment": "NCI In Vivo Anticancer Drug Screen. Data for tumor model P388 Leukemia (intraperitoneal) in B6D2F1 (BDF1) mice",
  "conditions": "endpoint: median survival time, higher = longer survival",
  "method_in_brief": "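T/C = treated-group survival ÷ vehicle-control survival; tumour transplanted into mice before dosing.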",
  "key": {"[1]": {"conditions": "dose: 25.0 mg/kg/injection, schedule: Q01DX009 (ip), vehicle: saline with Tween-80"}, "[2]": {"conditions": "dose: 50.0 mg/kg/injection, schedule: Q01DX009 (ip), vehicle: saline with Tween-80"}, "[3]": {"conditions": "dose: 100.0 mg/kg/injection, schedule: Q01DX009 (ip), vehicle: saline with Tween-80"}, "[4]": {"conditions": "dose: 50.0 mg/kg/injection, schedule: Q01DX009 (ip), vehicle: Klucel (hydroxypropylcellulose) (HPC)"}, "[5]": {"conditions": "dose: 100.0 mg/kg/injection, schedule: Q01DX009 (ip), vehicle: Klucel (hydroxypropylcellulose) (HPC)"}, "[6]": {"conditions": "dose: 100.0 mg/kg/injection, schedule: Q04DX003 (ip), vehicle: saline with Tween-80"}, "[7]": {"conditions": "dose: 200.0 mg/kg/injection, schedule: Q04DX003 (ip), vehicle: saline with Tween-80"}, "[8]": {"conditions": "dose: 400.0 mg/kg/injection, schedule: Q04DX003 (ip), vehicle: saline with Tween-80"}, "[9]": {"conditions": "dose: 200.0 mg/kg/injection, schedule: Q01DX009 (ip), vehicle: saline with Tween-80"}},
  "note": "Values joined by “and” are separate entries in the source; they are usually repeats but may differ in a detail not shown here. Identical values can stand only once. Toxic doses and inconclusive results are not listed. Positions of bridges follow the written chain, without caps; N, C: chain ends. Non-standard residues stand in square brackets, D forms with d. Residues, ends and D or L forms follow the SMILES beside them. Pip(4-oxo) = O=C1CCN[CH](C(=O)O)C1; NMeV = CN[CH](C(=O)O)C(C)C; Sar = CNCC(=O)O",
  "data": [
    {"smiles": "COc1ccc(/C=C(\\C)[N+](=O)[O-])cc1OC", "values": [
      {"measurement": "T/C", "setting": "dose: 3.13 mg/kg/injection, schedule: Q01DX009 (ip), vehicle: other", "value": "116 % of control"},
      {"measurement": "T/C", "setting": "dose: 6.25 mg/kg/injection, schedule: Q01DX009 (ip), vehicle: other", "value": "116 % of control"},
      {"measurement": "T/C", "setting": "dose: 12.5 mg/kg/injection, schedule: Q01DX009 (ip), vehicle: other", "value": "110 % of control"},
      {"measurement": "T/C", "setting": "dose: 25.0 mg/kg/injection, schedule: Q01DX009 (ip), vehicle: other", "value": "118 % of control"}
    ]},
    {"smiles": "O=C1SC2(CCCCC2)SC1=O", "values": [
      {"measurement": "T/C", "setting": "[1]", "value": "95 % of control"},
      {"measurement": "T/C", "setting": "[2]", "value": "95 % of control"},
      {"measurement": "T/C", "setting": "[3]", "value": "104 % of control"}
    ]},
    {"smiles": "C[C@@H]1C[C@H]2[C@@H]3CCC4=CC(=O)C=C[C@]4(C)[C@@]3(F)[C@@H](O)C[C@]2(C)[C@@]1(O)C(=O)CO", "values": [
      {"measurement": "T/C", "setting": "dose: 6.25 mg/kg/injection, schedule: Q04DX003 (ip), vehicle: saline", "value": "104 % of control"},
      {"measurement": "T/C", "setting": "dose: 12.5 mg/kg/injection, schedule: Q04DX003 (ip), vehicle: saline", "value": "109 % of control"},
      {"measurement": "T/C", "setting": "dose: 16.5 mg/kg/injection, schedule: Q04DX003 (ip), vehicle: saline", "value": "112 % of control and 122 % of control"},
      {"measurement": "T/C", "setting": "dose: 25.0 mg/kg/injection, schedule: Q04DX003 (ip), vehicle: saline sonified", "value": "110 % of control"},
      {"measurement": "T/C", "setting": "dose: 25.0 mg/kg/injection, schedule: Q04DX003 (ip), vehicle: saline", "value": "100 % of control and 113 % of control"},
      {"measurement": "T/C", "setting": "dose: 37.5 mg/kg/injection, schedule: Q04DX003 (ip), vehicle: saline", "value": "109 % of control and 112 % of control"},
      {"measurement": "T/C", "setting": "dose: 50.0 mg/kg/injection, schedule: Q04DX003 (ip), vehicle: saline sonified", "value": "110 % of control"},
      {"measurement": "T/C", "setting": "dose: 50.0 mg/kg/injection, schedule: Q04DX003 (ip), vehicle: saline", "value": "90 % of control"},
      {"measurement": "T/C", "setting": "dose: 55.0 mg/kg/injection, schedule: Q04DX003 (ip), vehicle: saline", "value": "110 % of control"},
      {"measurement": "T/C", "setting": "dose: 85.0 mg/kg/injection, schedule: Q04DX003 (ip), vehicle: saline", "value": "119 % of control"},
      {"measurement": "T/C", "setting": "dose: 100.0 mg/kg/injection, schedule: Q04DX003 (ip), vehicle: saline sonified", "value": "100 % of control"}
    ]},
    {"smiles": "O=C(NC(CSC(=O)c1ccccc1)C(=O)O)OCc1ccccc1", "note": "(stereo not drawn)", "values": [
      {"measurement": "T/C", "setting": "[4]", "value": "95 % of control"},
      {"measurement": "T/C", "setting": "[5]", "value": "95 % of control"},
      {"measurement": "T/C", "setting": "dose: 200.0 mg/kg/injection, schedule: Q01DX009 (ip), vehicle: Klucel (hydroxypropylcellulose) (HPC)", "value": "100 % of control"}
    ]},
    {"smiles": "Cc1cccc(NC(=O)c2ccccc2Cl)c1C", "values": [
      {"measurement": "T/C", "setting": "[6]", "value": "109 % of control"},
      {"measurement": "T/C", "setting": "[7]", "value": "90 % of control"},
      {"measurement": "T/C", "setting": "[8]", "value": "90 % of control"}
    ]},
    {"smiles": "COc1cc(OC)cc(C(N)=O)c1", "values": [
      {"measurement": "T/C", "setting": "dose: 50.0 mg/kg/injection, schedule: Q04DX003 (ip), vehicle: Klucel (hydroxypropylcellulose) (HPC)", "value": "100 % of control"},
      {"measurement": "T/C", "setting": "dose: 100.0 mg/kg/injection, schedule: Q04DX003 (ip), vehicle: Klucel (hydroxypropylcellulose) (HPC)", "value": "95 % of control"},
      {"measurement": "T/C", "setting": "dose: 200.0 mg/kg/injection, schedule: Q04DX003 (ip), vehicle: Klucel (hydroxypropylcellulose) (HPC)", "value": "100 % of control"}
    ]},
    {"smiles": "CC(N)C(=O)NCCN(C)C", "note": "(stereo not drawn)", "values": [
      {"measurement": "T/C", "setting": "dose: 50.0 mg/kg/injection, schedule: Q01DX005 (ip), vehicle: saline", "value": "95 % of control"},
      {"measurement": "T/C", "setting": "dose: 100.0 mg/kg/injection, schedule: Q01DX005 (ip), vehicle: saline", "value": "107 % of control"},
      {"measurement": "T/C", "setting": "dose: 200.0 mg/kg/injection, schedule: Q01DX005 (ip), vehicle: saline", "value": "99 % of control"}
    ]},
    {"smiles": "CC1(C)CC(=O)NN1C(=O)c1ccccc1", "values": [
      {"measurement": "T/C", "setting": "[6]", "value": "100 % of control"},
      {"measurement": "T/C", "setting": "[7]", "value": "105 % of control"},
      {"measurement": "T/C", "setting": "[8]", "value": "95 % of control"}
    ]},
    {"smiles": "CCn1cnc2c(SC)nc(N)nc21", "values": [
      {"measurement": "T/C", "setting": "dose: 25.0 mg/kg/injection, schedule: Q01DX009 (ip), vehicle: Klucel (hydroxypropylcellulose) (HPC)", "value": "110 % of control"},
      {"measurement": "T/C", "setting": "[4]", "value": "105 % of control"},
      {"measurement": "T/C", "setting": "dose: 50.0 mg/kg/injection, schedule: Q04DX003 (ip), vehicle: alcohol", "value": "100 % of control"},
      {"measurement": "T/C", "setting": "dose: 75.0 mg/kg/injection, schedule: Q04DX003 (ip), vehicle: Klucel (hydroxypropylcellulose) (HPC)", "value": "104 % of control"},
      {"measurement": "T/C", "setting": "[5]", "value": "100 % of control"},
      {"measurement": "T/C", "setting": "dose: 100.0 mg/kg/injection, schedule: Q04DX003 (ip), vehicle: alcohol", "value": "100 % of control"},
      {"measurement": "T/C", "setting": "dose: 150.0 mg/kg/injection, schedule: Q04DX003 (ip), vehicle: Klucel (hydroxypropylcellulose) (HPC)", "value": "100 % of control"},
      {"measurement": "T/C", "setting": "dose: 200.0 mg/kg/injection, schedule: Q04DX003 (ip), vehicle: alcohol", "value": "100 % of control"},
      {"measurement": "T/C", "setting": "dose: 300.0 mg/kg/injection, schedule: Q04DX003 (ip), vehicle: Klucel (hydroxypropylcellulose) (HPC)", "value": "109 % of control"}
    ]},
    {"smiles": "CCCCC(CC)COP(=O)(CC(CC)CCCC)OCC(CC)CCCC", "note": "(stereo not drawn)", "values": [
      {"measurement": "T/C", "setting": "[1]", "value": "100 % of control"}
    ]},
    {"smiles": "C=CCNC(=O)Cn1nnc(-c2ccccc2)n1", "values": [
      {"measurement": "T/C", "setting": "[2]", "value": "86 % of control"},
      {"measurement": "T/C", "setting": "[3]", "value": "101 % of control"},
      {"measurement": "T/C", "setting": "[9]", "value": "107 % of control"}
    ]},
    {"smiles": "CCSC(CC(C)=O)c1ccc(Cl)c(Cl)c1", "note": "(stereo not drawn)", "values": [
      {"measurement": "T/C", "setting": "[2]", "value": "104 % of control"},
      {"measurement": "T/C", "setting": "[3]", "value": "107 % of control"},
      {"measurement": "T/C", "setting": "[9]", "value": "118 % of control"}
    ]},
    {"smiles": "CC(C)C1NC(=O)C(N)C(C)OC(=O)C(C(C)C)N(C)C(=O)CN(C)C(=O)C2CC(=O)CCN2C1=O", "note": "(stereo not drawn) (tested in a mixture with another compound) (H-TV[Pip(4-oxo)][Sar][NMeV]; ester 1-C; configuration not given here)", "values": [
      {"measurement": "T/C", "setting": "dose: 50.0 micrograms/kg/injection, schedule: Q01DX009 (ip), vehicle: saline + alcohol", "value": "168 % of control"},
      {"measurement": "T/C", "setting": "dose: 75.0 micrograms/kg/injection, schedule: Q01DX009 (ip), vehicle: saline + alcohol", "value": "203 % of control"},
      {"measurement": "T/C", "setting": "dose: 100.0 micrograms/kg/injection, schedule: Q01DX009 (ip), vehicle: saline + alcohol", "value": "192 % of control"},
      {"measurement": "T/C", "setting": "dose: 150.0 micrograms/kg/injection, schedule: Q01DX009 (ip), vehicle: saline + alcohol", "value": "230 % of control"}
    ]}
  ]
}
